Data: ChEMBL document CHEMBL4673395, “Discovery of PIPE-359, a Brain-Penetrant, Selective M Receptor Antagonist with Robust Efficacy in Murine MOG-EAE” (ACS Med Chem Lett, 2021)
Values belong to the compound of their own block, whether it stands above or below them. Active and inactive are the calls of the source. The calls are words filed in the database; no cut-off is given here.

Tests used:
[1] = Metabolic stability in rat liver microsomes assessed as parent compound remaining at 1 uM measured at 15 mins by LC-MS/MS analysis; type: ADME, Microsome; settings: read-out: Stabilty
[2] = biological target: T1, Muscarinic acetylcholine receptor M1 (Homo sapiens, UniProt P11229); experiment: Antagonist activity at human recombinant muscarinic receptor M1 expressed in CHO-K1 cells assessed as EC80 acetylcholine-induced calcium flux incubated for 30 mins; type: functional, cell-based
T1 sequence (P11229 whole entry): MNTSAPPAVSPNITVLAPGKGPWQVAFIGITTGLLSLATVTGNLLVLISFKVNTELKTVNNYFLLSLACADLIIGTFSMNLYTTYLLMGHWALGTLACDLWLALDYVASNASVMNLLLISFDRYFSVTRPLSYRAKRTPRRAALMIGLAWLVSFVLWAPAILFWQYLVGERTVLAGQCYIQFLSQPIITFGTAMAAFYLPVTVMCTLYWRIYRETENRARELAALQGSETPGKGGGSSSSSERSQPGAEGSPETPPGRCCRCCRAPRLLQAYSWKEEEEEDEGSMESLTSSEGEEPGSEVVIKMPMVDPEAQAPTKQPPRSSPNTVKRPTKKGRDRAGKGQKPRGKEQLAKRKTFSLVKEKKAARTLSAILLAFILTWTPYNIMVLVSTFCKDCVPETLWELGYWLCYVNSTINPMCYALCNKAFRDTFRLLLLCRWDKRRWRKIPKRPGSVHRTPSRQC

[3] = biological target: T2, Muscarinic acetylcholine receptor M2 (Homo sapiens, UniProt P08172); experiment: Antagonist activity at human recombinant muscarinic receptor M2 expressed in CHO-K1 cells assessed as EC80 acetylcholine-induced calcium flux incubated for 30 mins; type: functional, cell-based
T2 sequence (P08172 whole entry): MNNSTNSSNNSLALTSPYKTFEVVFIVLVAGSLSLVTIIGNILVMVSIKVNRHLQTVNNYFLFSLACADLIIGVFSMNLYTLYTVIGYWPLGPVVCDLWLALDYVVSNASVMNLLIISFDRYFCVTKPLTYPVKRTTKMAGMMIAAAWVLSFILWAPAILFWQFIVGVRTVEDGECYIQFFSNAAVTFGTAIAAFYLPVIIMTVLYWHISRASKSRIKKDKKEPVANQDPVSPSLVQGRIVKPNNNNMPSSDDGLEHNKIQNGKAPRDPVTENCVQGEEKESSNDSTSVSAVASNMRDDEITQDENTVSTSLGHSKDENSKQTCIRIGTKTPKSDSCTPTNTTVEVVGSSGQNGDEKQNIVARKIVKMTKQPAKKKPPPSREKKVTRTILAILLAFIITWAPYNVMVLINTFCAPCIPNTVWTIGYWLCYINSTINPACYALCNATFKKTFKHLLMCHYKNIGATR

[4] = biological target: T3, Muscarinic acetylcholine receptor M3 (Homo sapiens, UniProt P20309); experiment: Antagonist activity at human recombinant muscarinic receptor M3 expressed in CHO-K1 cells assessed as EC80 acetylcholine-induced calcium flux incubated for 30 mins; type: functional, cell-based
T3 sequence (P20309 whole entry): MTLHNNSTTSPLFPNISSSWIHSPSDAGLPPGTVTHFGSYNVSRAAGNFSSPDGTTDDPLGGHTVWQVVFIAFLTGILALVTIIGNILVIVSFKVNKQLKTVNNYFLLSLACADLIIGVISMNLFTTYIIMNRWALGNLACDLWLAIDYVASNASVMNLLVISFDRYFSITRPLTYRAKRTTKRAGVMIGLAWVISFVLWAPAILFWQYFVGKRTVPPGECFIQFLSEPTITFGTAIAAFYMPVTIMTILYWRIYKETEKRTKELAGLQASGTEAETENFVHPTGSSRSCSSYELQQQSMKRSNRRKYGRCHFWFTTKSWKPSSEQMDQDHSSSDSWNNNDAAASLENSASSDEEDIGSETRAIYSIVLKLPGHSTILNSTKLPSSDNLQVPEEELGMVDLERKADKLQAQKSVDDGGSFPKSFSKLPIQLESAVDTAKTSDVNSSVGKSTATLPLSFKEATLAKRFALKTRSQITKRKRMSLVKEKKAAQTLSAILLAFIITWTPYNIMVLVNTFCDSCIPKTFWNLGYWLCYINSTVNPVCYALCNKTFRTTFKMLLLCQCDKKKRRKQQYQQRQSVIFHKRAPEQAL

[5] = Fraction unbound in rat plasma at 30 mg/kg, po measured after 8 hrs; type: ADME, organism-based; settings: in vivo
[6] = AUC in rat at 2 mg/kg, iv; type: ADME, organism-based; design: dose 2 mg/kg; settings: in vivo
[7] = Apparant permeability across apical to basolateral side in dog MDCK-MDR1 cells; type: ADME, cell-based, Canis lupus familiaris
[8] = AUC in rat at 10 mg/kg, po; type: ADME, organism-based; design: dose 10 mg/kg; settings: in vivo
[9] = Half life in rat at 2 mg/kg, iv; type: ADME, organism-based; settings: in vivo
[10] = Unbound clearance in rat at 10 mg/kg, po; type: ADME, organism-based; settings: in vivo
[11] = Metabolic stability in rat liver microsomes assessed as intrinsic clearance at 1 uM measured up to 60 mins by LC-MS/MS analysis; type: ADME, Microsome; settings: read-out: CLH
[12] = biological target: T1, Muscarinic acetylcholine receptor M1; experiment: Displacement of [3H]NMS from human recombinant muscarinic receptor M1 expressed in CHO-K1 cell membranes assessed as inhibition constant incubated for 1 hr by Radioligand binding assay
Cytochrome P450 2C9 = Cytochrome P450 2C9 (Homo sapiens, UniProt P11712); experiment: Inhibition of human CYP2C9 in pooled human liver microsomes using diclofenac as substrate incubated for 5 mins by LC-MS/MS; type: ADME
Chain of Cytochrome P450 2C9 (P11712 whole entry): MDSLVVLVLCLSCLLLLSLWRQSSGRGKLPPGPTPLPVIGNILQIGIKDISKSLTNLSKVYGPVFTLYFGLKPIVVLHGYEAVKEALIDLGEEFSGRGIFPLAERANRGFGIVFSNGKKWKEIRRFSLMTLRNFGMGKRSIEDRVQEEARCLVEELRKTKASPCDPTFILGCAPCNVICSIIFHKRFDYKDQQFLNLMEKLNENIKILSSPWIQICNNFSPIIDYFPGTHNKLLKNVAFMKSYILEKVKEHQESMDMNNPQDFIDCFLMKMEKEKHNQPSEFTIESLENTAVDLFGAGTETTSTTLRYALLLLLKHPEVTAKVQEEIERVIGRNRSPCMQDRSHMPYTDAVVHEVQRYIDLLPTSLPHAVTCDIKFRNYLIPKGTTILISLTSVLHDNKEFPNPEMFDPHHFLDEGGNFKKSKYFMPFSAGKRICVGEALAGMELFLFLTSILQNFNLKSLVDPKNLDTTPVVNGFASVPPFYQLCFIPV

[13] = Fraction unbound in rat brain at 30 mg/kg, po measured after 24 hrs; type: ADME, organism-based; settings: in vivo
[14] = Oral bioavailability in rat at 10 mg/kg; type: ADME, organism-based; settings: in vivo
[15] = biological target: Muscarinic acetylcholine receptor M2 (Homo sapiens, UniProt P08172); experiment: Displacement of [3H]NMS from human recombinant muscarinic receptor M2 expressed in CHO-K1 cell membranes assessed as inhibition constant incubated for 1 hr by Radioligand binding assay
[16] = Drug uptake in rat brain at 10 mg/kg, po measured after 2 hrs by LC-MS/MS; type: ADME, organism-based; settings: read-out: Drug uptake
[17] = Metabolic stability in human liver microsomes assessed as intrinsic clearance at 1 uM measured up to 60 mins by LC-MS/MS analysis; type: ADME, Microsome; settings: read-out: CLH
Cytochrome P450 2D6 = Cytochrome P450 2D6 (Homo sapiens, UniProt P10635); experiment: Inhibition of human CYP2D6 in pooled human liver microsomes using dextromethorphan as substrate incubated for 20 mins by LC-MS/MS; type: ADME
Chain of Cytochrome P450 2D6 (P10635 whole entry): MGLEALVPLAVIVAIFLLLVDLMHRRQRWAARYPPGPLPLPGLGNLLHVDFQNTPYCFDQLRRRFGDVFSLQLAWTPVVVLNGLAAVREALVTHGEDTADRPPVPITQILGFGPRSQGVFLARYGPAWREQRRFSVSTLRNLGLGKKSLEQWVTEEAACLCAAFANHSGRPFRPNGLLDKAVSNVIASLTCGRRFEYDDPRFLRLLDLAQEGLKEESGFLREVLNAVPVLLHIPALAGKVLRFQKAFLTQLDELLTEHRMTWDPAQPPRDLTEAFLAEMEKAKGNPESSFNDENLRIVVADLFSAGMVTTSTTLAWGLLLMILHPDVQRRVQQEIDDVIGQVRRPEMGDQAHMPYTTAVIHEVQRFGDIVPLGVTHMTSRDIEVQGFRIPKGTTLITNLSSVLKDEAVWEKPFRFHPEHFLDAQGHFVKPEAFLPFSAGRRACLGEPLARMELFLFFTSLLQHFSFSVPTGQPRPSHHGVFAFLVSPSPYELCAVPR

[18] = In vivo receptor occupancy at muscarinic M1 receptor in myelin oligodendrocyte glycoprotein (MOG)-induced experimental autoimmune encephalitis C57BL/6 mouse model assessed as decrease in occupancy at 30 mg/kg, po measured after 24 hrs; type: functional; design: Activity: scale not given: the % may be the effect or the level left
[19] = Fraction unbound in rat plasma at 30 mg/kg, po measured after 24 hrs; type: ADME, organism-based; settings: in vivo
[20] = Plasma protein binding in rat assessed as unbound fraction; type: ADME, cell-free
[21] = Metabolic stability in mouse liver microsomes assessed as intrinsic clearance at 1 uM measured up to 60 mins by LC-MS/MS analysis; type: ADME, Microsome; settings: read-out: CLH
Cytochrome P450 3A4 = Cytochrome P450 3A4 (Homo sapiens, UniProt P08684); experiment: Inhibition of human CYP3A4 in pooled human liver microsomes using midazolam as substrate incubated for 5 mins by LC-MS/MS; type: ADME
Chain of Cytochrome P450 3A4 (P08684 whole entry): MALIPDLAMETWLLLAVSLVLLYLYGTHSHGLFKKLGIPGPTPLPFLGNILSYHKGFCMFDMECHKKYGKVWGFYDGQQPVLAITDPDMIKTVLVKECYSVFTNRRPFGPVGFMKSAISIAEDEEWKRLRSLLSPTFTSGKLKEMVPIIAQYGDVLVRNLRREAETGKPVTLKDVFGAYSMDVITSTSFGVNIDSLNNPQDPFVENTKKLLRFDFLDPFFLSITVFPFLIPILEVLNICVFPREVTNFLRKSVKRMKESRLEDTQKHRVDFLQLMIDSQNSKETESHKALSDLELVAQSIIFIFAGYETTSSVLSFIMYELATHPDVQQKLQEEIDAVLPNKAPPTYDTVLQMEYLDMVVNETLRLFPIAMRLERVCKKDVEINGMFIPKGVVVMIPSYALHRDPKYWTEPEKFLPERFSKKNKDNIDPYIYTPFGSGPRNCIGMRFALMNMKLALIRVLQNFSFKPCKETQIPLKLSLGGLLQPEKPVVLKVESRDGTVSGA

[22] = Clearance in rat at 2 mg/kg, iv; type: ADME, organism-based; settings: in vivo
[23] = Plasma protein binding in mouse assessed as unbound fraction; type: ADME, cell-free
[24] = biological target: T3, Muscarinic acetylcholine receptor M3; experiment: Displacement of [3H]NMS from human recombinant muscarinic receptor M3 expressed in CHO-K1 cell membranes assessed as inhibition constant incubated for 1 hr by Radioligand binding assay
[25] = Unbound fraction in rat brain at 10 mg/kg, po measured after 2 hrs by LC-MS/MS; type: ADME, organism-based; settings: in vivo
Mus musculus = experiment: In vivo receptor occupancy at muscarinic M1 receptor in myelin oligodendrocyte glycoprotein (MOG)-induced experimental autoimmune encephalitis C57BL/6 mouse model assessed as decrease in occupancy at 30 mg/kg, po measured up to 8 hrs; type: functional, organism-based; settings: time hrs <=8

Compound: N#Cc1ccc(C2CCN(C(=O)CCS(=O)(=O)c3cccc4ncsc34)CC2)nc1
- IC50 ([2]; read-out: IC50): 19 nM

Compound: O=C(CCNS(=O)(=O)c1cccc2ncccc12)N1CCN(c2ccncc2)CC1
- IC50 ([2]; read-out: IC50): 130 nM

Compound: COc1cc(N2CCN(C(=O)CCCc3cccc4ncccc34)CC2)ccn1
- IC50 ([2]; read-out: IC50): 300 nM

Compound: Cc1cc(F)cnc1N1CCN(C(=O)CCCc2cccc3ncccc23)CC1
- IC50 ([2]; read-out: IC50): 69 nM

Compound: Cc1cc(F)cnc1N1CCN(C(=O)CCCc2cccc3ncccc23)[C@H](C)C1
- IC50 ([3]; read-out: pIC50 (converted)): 631 nM
- IC50 ([4]; read-out: pIC50 (converted)): 501 nM

Compound: O=C(CCS(=O)(=O)c1cccc2ncsc12)N1CCN(c2ccnc(C(F)(F)F)c2)CC1
- IC50 ([2]; read-out: IC50): 4800 nM

Compound: O=C(CCCc1cccc2ncccc12)N1CC2(C1)CN(c1ccc(F)cn1)C2
- IC50 ([2]; read-out: IC50): > 20000 nM
- IC50 ([2]; read-out: pIC50 (converted)): > 10000 nM

Compound: N#Cc1ccc(N2C3CCC2CN(C(=O)CCS(=O)(=O)c2cccc4ncsc24)C3)nc1
- Cp(f) [5]: 117 nM
- AUC [6]: 100 ng·h/mL
- Papp A→B [7]: 7.7 ×10⁻⁶ cm/s
- AUC [8]: 21 ng·h/mL
- half-life [9]: 54 min
- CL free [10]: 273 mL/min/kg
- microsomal CLint at 1 µM [11]: 23 µL/min/mg
- Ki [12]: 0.14 nM
- IC50 (Cytochrome P450 2C9): > 10000 nM
- Drug uptake(free) [13]: 0.12 nM
- bioavailability [14]: 4.5%
- Ki [15]: 19 nM
- concentration at 2 h [16]: 26 nM
- microsomal CLint at 1 µM [17]: 42 µL/min/mg
- IC50 (Cytochrome P450 2D6): > 10000 nM
- Activity [18]: 40%
- IC50 ([2]; read-out: IC50): 1.8 nM
- Cp(f) [19]: 2.9 nM
- IC50 ([3]; read-out: IC50): 200 nM
- fraction unbound [20]: 0.2
- microsomal CLint at 1 µM [21]: 21 µL/min/mg
- IC50 (Cytochrome P450 3A4): > 10000 nM
- clearance [22]: 56 mL/min/kg
- IC50 ([4]; read-out: IC50): 55 nM
- fraction unbound [23]: 0.18
- Ki [24]: 0.84 nM
- Drug uptake(free) [25]: 3.4 nM
- Occ (Mus musculus): Active

Compound: C[C@@H]1CN(C(=O)CCS(=O)(=O)c2cccc3ncsc23)[C@@H](C)CN1c1ccc(C#N)cn1 (racemic)
- IC50 ([2]; read-out: IC50): 330 nM

Compound: Cc1ccncc1N1CCN(C(=O)CCS(=O)(=O)c2cccc3ncsc23)CC1
- IC50 ([2]; read-out: IC50): 260 nM

Compound: Cc1cncc(Cl)c1N1CCN(C(=O)CCS(=O)(=O)c2cccc3ncsc23)CC1
- IC50 ([2]; read-out: IC50): 8500 nM

Compound: C[C@@H]1CN(c2ccncc2Cl)CCN1C(=O)CCCc1cccc2ncccc12
- IC50 ([2]; read-out: IC50): 38 nM

Next, values leading:

- remaining at 0.25 h, 1 µM [1]: 29%
- IC50 ([2]; read-out: IC50): 380 nM
Compound: O=C(CCS(=O)(=O)c1cccc2ncsc12)N1CCN(c2ccncc2F)CC1

- IC50 ([2]; read-out: IC50): 1100 nM
Compound: N#Cc1cnccc1N1CCN(C(=O)CCCc2cccc3ncccc23)CC1

- IC50 ([2]; read-out: IC50): 20 nM
Compound: Cc1ccncc1N1CCN(C(=O)CCCc2cccc3ncccc23)[C@H](C)C1

- IC50 ([2]; read-out: IC50): 24 nM
Compound: O=C(CCCc1cccc2ncccc12)N1CCN(c2ccncc2)CC1

- remaining at 0.25 h, 1 µM [1]: 0%
Compound: Cc1cc(F)cnc1N1CCN(C(=O)CCCc2cccc3ncoc23)[C@@H](C)C1

- IC50 ([2]; read-out: IC50): 1900 nM
Compound: Cc1cc(F)cnc1N1CCN(C(=O)CCCS(=O)(=O)c2cccc3ncsc23)[C@@H](C)C1

- IC50 ([2]; read-out: IC50): 3600 nM
Compound: Cc1cc(F)cnc1N1CCN(C(=O)COCc2cccc3ncsc23)[C@@H](C)C1

- IC50 ([2]; read-out: IC50): 490 nM
Compound: O=C(CCCc1cccc2ncccc12)N1CCN(c2ccncc2F)CC1
